The subject of data set [1] is LoVo (Colorectal Adenocarcinoma). Nature of the data set: Cell viability analysis, colon cancer LoVo. The format is cell-based, human. The conditions noted are these: Homo sapiens, LoVo.
Data set [2] has as its system HI650 (Lung Adenocarcinoma). Nature of the data set: Cell viability analysis, lung cancer HI650. The conditions noted are these: Homo sapiens. The format is cell-based, human.
Data set [3] deals with AGS (Gastric Adenocarcinoma). Nature of the data set: Cell viability analysis, gastric cancer AGS. Format: cell-based, human. The conditions noted are these: Homo sapiens.
For data set [4], the system named is TSGH-8301 (Urinary Bladder Carcinoma). Nature of the data set: Cell viability analysis, bladder cancer TSGH-8301. The format is cell-based, human. The conditions noted are these: Homo sapiens.
For data set [5], the system named is A375 (Amelanotic Melanoma). Put plainly: Cell viability analysis, skin cancer A375. Format: cell-based, human. Conditions: Homo sapiens.
In data set [6] the test system is HL-60 (Acute Promyelocytic Leukemia). Nature of the data set: Cell viability analysis, leukemia HL-60. Format: cell-based, human. The conditions noted are these: Homo sapiens.
Data set [7] concerns A549 (Lung Adenocarcinoma). Nature of the data set: Cell viability analysis, lung cancer A549. Format: cell-based, human. Conditions: Homo sapiens.
Data set [8] deals with PC3 (p53−) (Prostate Adenocarcinoma). Put plainly: Cell viability analysis, prostate cancer PC3. The conditions noted are these: Homo sapiens. Format: cell-based, human.
Data set [9] concerns HCT116 (p53+) (Colorectal Carcinoma). Nature of the data set: cells. Conditions: Homo sapiens, HCT-116, 72 h, read-out: cell viability (survival rate), HCT116.
In data set [10] the test system is HeLa (Cervix Adenocarcinoma). Put plainly: Cell viability analysis, cervical cancer HeLa. Format: cell-based, human. The conditions noted are these: Homo sapiens, HeLa.
Data set [11] relates to HepG2 (Hepatocellular Carcinoma). Nature of the data set: Cell viability analysis, hepatic cancer HepG2. Conditions: Homo sapiens, HepG2, 72 h. Format: cell-based, human.
Data set [12] deals with SAS (Tongue squamous cell carcinoma). Nature of the data set: Cell viability analysis, tongue cancer SAS. The format is cell-based, human. The conditions noted are these: Homo sapiens, 72 h, read-out: The results of antibiotic drug inhibiting cancer cell lines (cell viability analysis), SAS.
Data set [13] concerns BxPC-3. Put plainly: Cell viability analysis, pancreatic cancer BxPC-3. Format: cell-based, human. The conditions noted are these: Homo sapiens, BXPC-3, 72 h, read-out: The results of antibiotic drug inhibiting cancer cell lines (cell viability analysis), BxPC-3.
Data set [14] concerns MCF7 (Mammary Gland, Adenocarcinoma). Put plainly: Cell viability analysis, breast cancer MCF7. Format: cell-based, human. Conditions: Homo sapiens.
Data set [15] deals with Hep3B (hepatocellular carcinoma). Put plainly: Cell viability analysis, hepatic cancer Hep3B. The conditions noted are these: Homo sapiens, Hep3B, 72 h, read-out: The results of antibiotic drug inhibiting cancer cell lines (cell viability analysis), Hep3B. Format: cell-based, human.
Data set [16] has as its system BCC (basal cell carcinoma). Put plainly: Cell viability analysis, skin cancer BCC. Format: cell-based, human. Conditions: Homo sapiens, 72 h, read-out: The results of antibiotic drug inhibiting cancer cell lines (cell viability analysis), BCC.
Data set [17] has as its system cancer cell lines. Put plainly: Cell viability analysis (WST-1) on cancer cell lines. Format: cell-based, human. Conditions: drug 10 μM, 72 hours, WST-1; Table 3.
The subject of data set [18] is TOV-21G. Put plainly: Cell viability analysis, ovarian cancer TOV-21G. The format is cell-based, human. Conditions: Homo sapiens, TOV21G, 72 h, read-out: The results of antibiotic drug inhibiting cancer cell lines (cell viability analysis), TOV-21G.
Data set [19] has as its system NIH: OVCAR-3. Nature of the data set: Cell viability analysis, ovarian cancer NIH: OVCAR-3. Format: cell-based, human. Conditions: Homo sapiens, OVCAR-3, 72 h, read-out: The results of antibiotic drug inhibiting cancer cell lines (cell viability analysis), NIH-OVCAR-3.
Data set [20] has as its system T24. Put plainly: Cell viability analysis, bladder cancer T24. Format: cell-based, human. Conditions: Homo sapiens, T-24, 72 h, read-out: The results of antibiotic drug inhibiting cancer cell lines (cell viability analysis), T24.
Data set [21] deals with U-2OS. Nature of the data set: Cell viability analysis, osteosarcoma U-2OS. Format: cell-based, human. The conditions noted are these: Homo sapiens, U2OS, 72 h, read-out: The results of antibiotic drug inhibiting cancer cell lines (cell viability analysis), U2OS.
The test system of data set [22] is MDA-MB-231 (Mammary Gland, Adenocarcinoma). Put plainly: Cell viability analysis, breast cancer MDA-MB-231. The format is cell-based, human. The conditions noted are these: Homo sapiens, MDA-MB-231, 72 h, read-out: The results of antibiotic drug inhibiting cancer cell lines (cell viability analysis), MDA-MB231.
Data set [23] concerns 786-O (Renal adenocarcinoma). Nature of the data set: Cell viability analysis, renal cancer 786-O. The format is cell-based, human. The conditions noted are these: Homo sapiens, 786-0, 72 h, read-out: The results of antibiotic drug inhibiting cancer cell lines (cell viability analysis), 786-O.
Data set [24] has as its system HCT116 (p53+) (Colorectal Carcinoma).
Data set [25] deals with MKN-45 (Gastric Adenocarcinoma). Put plainly: Cell viability analysis, gastric cancer MKN-45. Format: cell-based, human. The conditions noted are these: Homo sapiens.
The subject of data set [26] is C-33A (Cervical carcinoma). Put plainly: Cell viability analysis, cervical cancer C-33A. Format: cell-based, human. The conditions noted are these: Homo sapiens, C-33-A, 72 h, read-out: The results of antibiotic drug inhibiting cancer cell lines (cell viability analysis), C-33A.
For data set [27], the system named is AsPC-1. Put plainly: Cell viability analysis, pancreatic cancer AsPC-1. Format: cell-based, human. The conditions noted are these: Homo sapiens, ASPC1, 72 h, read-out: The results of antibiotic drug inhibiting cancer cell lines (cell viability analysis), AsPC-1.
The mark [28] stands for this setting: 72 h, read-out: cell viability (survival rate), LoVo, drug 10 μM, 72 hours, WST-1, OD450 nm.
Setting [29] is: NCI-H1650, 72 h, read-out: cell viability (survival rate), H1650, drug 10 μM, 72 hours, WST-1, OD450 nm.
Setting [30] is: 72 h, read-out: cell viability (survival rate), AGS, drug 10 μM, 72 hours, WST-1, OD450 nm.
[31] abbreviates: 72 h, read-out: cell viability (survival rate), TSGH, drug 10 μM, 72 hours, WST-1, OD450 nm.
The mark [32] stands for this setting: A-375, 72 h, read-out: cell viability (survival rate), A375, drug 10 μM, 72 hours, WST-1, OD450 nm.
Setting [33] is: HL-60, 72 h, read-out: cell viability (survival rate), HL-60, drug 10 μM, 72 hours, WST-1, OD450 nm.
The mark [34] stands for this setting: A549, 72 h, read-out: cell viability (survival rate), A549, drug 10 μM, 72 hours, WST-1, OD450 nm.
Where [35] appears, read: 72 h, read-out: cell viability (survival rate), PC3, drug 10 μM, 72 hours, WST-1, OD450 nm.
The mark [36] stands for this setting: read-out: cell viability (survival rate), HepG2, drug 10 μM, 72 hours, WST-1, OD450 nm.

Each structure is given as a SMILES string. Like-named read-outs stand apart in the source and are kept apart here.

In the case of `O=c1ccc2ccccc2o1` [Coumarin], the viability at 10 µM in data set [1] (setting [28]) is 88.3%; in data set [2] (setting [29]) it was 95.6%; in data set [3] (setting [30]), 98.5%; in data set [4] (setting [31]), 108%; in data set [5] (setting [32]), 157%; in data set [6] (setting [33]) it was 102%. The viability at 10 µM in data set [7] (setting [34]) was 91.8%; in [8] (setting [35]), 86.3%; in data set [9], 93.7%; in data set [10] (72 h, read-out: cell viability (survival rate), HeLa, drug 10 μM, 72 hours, WST-1, OD450 nm), 96.5%; in data set [11] (setting [36]) it was 100%.
Turning to `CN(C)c1cc(NC(=O)CNC(C)(C)C)c(O)c2c1C[C@H]1C[C@H]3[C@H](N(C)C)C(O)=C(C(N)=O)C(=O)[C@@]3(O)C(O)=C1C2=O` [Tigecycline], the viability at 10 µM in data set [12] turned out to be 66.2%; in [13], 75.6%; in data set [1] (72 h, read-out: The results of antibiotic drug inhibiting cancer cell lines (cell viability analysis), LoVo, repeated experiment) it was 96%; in [1] (setting [28]), 82.4%; in data set [14] (MCF7, 72 h, read-out: The results of antibiotic drug inhibiting cancer cell lines (cell viability analysis), MCF-7, MCF-7, repeated experiment), 79.1%; in [14] (MCF7, 72 h, read-out: cell viability (survival rate), MCF7, drug 10 μM, 72 hours, WST-1, OD450 nm), 71.1%. Also, the viability at 10 µM in [15] is 106%; in data set [2] (NCI-H1650, 72 h, read-out: The results of antibiotic drug inhibiting cancer cell lines (cell viability analysis), H1650, H1650, repeated experiment) it was 66.9%; in data set [2] (setting [29]), 53.1%; in data set [3] (72 h, read-out: The results of antibiotic drug inhibiting cancer cell lines (cell viability analysis), AGS, repeated experiment), 90.6%; in [3] (setting [30]) it was 49.4%; in [16], 79.9%. The viability at 10 µM in data set [4] (72 h, TSGH-8301, repeated experiment, read-out: The results of antibiotic drug inhibiting cancer cell lines (cell viability analysis), TSGH-8301) was determined as 113%; in data set [4] (setting [31]), 98.5%; in data set [5] (A-375, 72 h, read-out: The results of antibiotic drug inhibiting cancer cell lines (cell viability analysis), A375, A375, repeated experiment), 83.2%; in data set [5] (setting [32]) it was 52.2%; in data set [6] (setting [33]) it was 97.6%; in data set [7] (A549, 72 h, read-out: The results of antibiotic drug inhibiting cancer cell lines (cell viability analysis), A549, A549, repeated experiment), 91.5%. Further, the viability at 10 µM is 55.9% in data set [7] (setting [34]); 67.1% in data set [18]; 91.1% in [19]; 109% in [20]; 84% in [21]; 112% in data set [8] (72 h, read-out: The results of antibiotic drug inhibiting cancer cell lines (cell viability analysis), PC-3, PC-3, repeated experiment). Moreover, the viability at 10 µM in data set [8] (setting [35]) turned out to be 83%; in data set [22] it was 93.4%; in data set [10] (72 h, read-out: The results of antibiotic drug inhibiting cancer cell lines (cell viability analysis), HeLa, repeated experiment), 102%; in data set [23] it was 100%; in data set [25] (MKN-45, 72 h, read-out: The results of antibiotic drug inhibiting cancer cell lines (cell viability analysis), MKN-45, MKN-45, repeated experiment) it was 114%; in [25] (MKN-45, 72 h, read-out: cell viability (survival rate), MKN-45, drug 10 μM, 72 hours, WST-1, OD450 nm), 89.2%. In addition, the viability at 10 µM in data set [26] is 100%; in data set [11] (read-out: The results of antibiotic drug inhibiting cancer cell lines (cell viability analysis), HepG2, HepG2, repeated experiment), 97.2%; in data set [11] (setting [36]) it was 102%; in data set [27] it was 86.5%. Also, the “inhibition effect on different cancer cell lines” value in data set [17] is “significant inhibition effect”. Further, in data set [24], the viability was found to be 89.7%.
As for `c1ccc2c(c1)sc1ccccc12` [Dibenzothiophene], the viability at 10 µM in [1] (drug 10 μM, 72 hours, WST-1, OD450 nm, read-out: cell viability (survival rate), LoVo) was found to be 79.7%; in data set [14] (MCF7, drug 10 μM, 72 hours, WST-1, OD450 nm, read-out: cell viability (survival rate), MCF7), 71.4%; in [2] (NCI-H1650, drug 10 μM, 72 hours, WST-1, OD450 nm, read-out: cell viability (survival rate), H1650), 76.1%; in [3] (drug 10 μM, 72 hours, WST-1, OD450 nm, read-out: cell viability (survival rate), AGS), 59.2%; in data set [4] (drug 10 μM, 72 hours, WST-1, OD450 nm, read-out: cell viability (survival rate), TSGH), 88.2%; in data set [5] (A-375, drug 10 μM, 72 hours, WST-1, OD450 nm, read-out: cell viability (survival rate), A375), 70.6%. Also, the viability at 10 µM in data set [6] (HL-60, drug 10 μM, 72 hours, WST-1, OD450 nm, read-out: cell viability (survival rate), HL-60) turned out to be 110%; in data set [7] (A549, drug 10 μM, 72 hours, WST-1, OD450 nm, read-out: cell viability (survival rate), A549), 62.3%; in [8] (drug 10 μM, 72 hours, WST-1, OD450 nm, read-out: cell viability (survival rate), PC3) it was 80.2%; in data set [9] it was 52.7%; in data set [10] (drug 10 μM, 72 hours, WST-1, OD450 nm, read-out: cell viability (survival rate), HeLa) it was 94.6%; in data set [25] (MKN-45, drug 10 μM, 72 hours, WST-1, OD450 nm, read-out: cell viability (survival rate), MKN-45), 92.1%.

Source of the values: patent US10105357B2, “Indication of antibiotic drugs for preparation of cancer inhibition pharmaceutical composition” (LAUNX BIOMEDICAL CO., LTD., priority 2014, dated 2018).
